In publication PMC7044277 (Nature Communications, 2020):
“And” between values parts separate entries of the source, which are not always exact repeats. Equal entries are not always repeated.

Experiments:
Assay type in all cases: cell-based
Set-up in all cases: GPCRome screening signal at PTGIR / GPCRome screening signal at PTH1R / GPCRome screening signal at PTH2R / GPCRome screening signal at QRFP / GPCRome screening signal at RXFP2 / GPCRome screening signal at RXFP3 / GPCRome screening signal at RXFP4 / GPCRome screening signal at S1PR2 / GPCRome screening signal at S1PR3 / GPCRome screening signal at S1PR4 / GPCRome screening signal at S1PR5 / GPCRome screening signal at SCTR / GPCRome screening signal at SSTR2 / GPCRome screening signal at SSSTR / GPCRome screening signal at SSTR4 / GPCRome screening signal at SSTR5 / GPCRome screening signal at SUCNR1 / GPCRome screening signal at TA1 / GPCRome screening signal at TAAR2 / GPCRome screening signal at TAAR5 / GPCRome screening signal at TAAR6 / GPCRome screening signal at TAAR8 / GPCRome screening signal at TACR1 / GPCRome screening signal at TACR2 / GPCRome screening signal at TACR3 / GPCRome screening signal at TBXA2R / GPCRome screening signal at TSHR / GPCRome screening signal at UTS2R / GPCRome screening signal at VIPR2 / GPCRome screening signal at GPR68 no V2 Tail / GPCRome screening signal at GRM2 / GPCRome screening signal at GRM3: reference not given here
320 non-olfactory GPCRs [1] = biological target: T1, 320 non-olfactory GPCRs (Homo sapiens, UniProt Q9UKP6); settings: receptor UTS2R
T1 construct: expressed in transfected cells; host or cells: HTLA cells
T1 sequence (Q9UKP6 whole entry): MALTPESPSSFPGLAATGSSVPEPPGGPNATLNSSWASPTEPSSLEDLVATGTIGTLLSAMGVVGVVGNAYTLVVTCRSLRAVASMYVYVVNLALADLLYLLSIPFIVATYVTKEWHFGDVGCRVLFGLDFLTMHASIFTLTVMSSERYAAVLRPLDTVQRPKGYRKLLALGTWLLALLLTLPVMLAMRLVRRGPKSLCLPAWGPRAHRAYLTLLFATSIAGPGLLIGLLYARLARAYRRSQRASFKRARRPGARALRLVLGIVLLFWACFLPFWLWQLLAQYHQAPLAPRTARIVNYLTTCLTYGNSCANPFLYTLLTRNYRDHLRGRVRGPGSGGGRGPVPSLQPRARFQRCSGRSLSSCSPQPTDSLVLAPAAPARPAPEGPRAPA

320 non-olfactory GPCRs [2] = biological target: T2, 320 non-olfactory GPCRs (Homo sapiens, UniProt Q96RJ0); settings: receptor TA1
T2 construct: expressed in transfected cells; host or cells: HTLA cells
T2 sequence (Q96RJ0 whole entry): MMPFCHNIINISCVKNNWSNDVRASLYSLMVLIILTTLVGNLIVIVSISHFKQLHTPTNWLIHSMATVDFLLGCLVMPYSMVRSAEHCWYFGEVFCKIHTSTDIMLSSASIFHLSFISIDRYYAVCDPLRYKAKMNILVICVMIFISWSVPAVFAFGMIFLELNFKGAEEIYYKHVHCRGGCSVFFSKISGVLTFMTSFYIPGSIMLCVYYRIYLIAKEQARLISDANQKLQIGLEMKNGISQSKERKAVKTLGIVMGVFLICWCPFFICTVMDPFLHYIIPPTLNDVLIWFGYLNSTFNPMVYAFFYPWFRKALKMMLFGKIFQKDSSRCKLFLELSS

320 non-olfactory GPCRs [3] = biological target: 320 non-olfactory GPCRs (Homo sapiens, UniProt P31391); settings: receptor SSTR4
Chain of 320 non-olfactory GPCRs (Homo sapiens, UniProt P31391) (P31391 whole entry): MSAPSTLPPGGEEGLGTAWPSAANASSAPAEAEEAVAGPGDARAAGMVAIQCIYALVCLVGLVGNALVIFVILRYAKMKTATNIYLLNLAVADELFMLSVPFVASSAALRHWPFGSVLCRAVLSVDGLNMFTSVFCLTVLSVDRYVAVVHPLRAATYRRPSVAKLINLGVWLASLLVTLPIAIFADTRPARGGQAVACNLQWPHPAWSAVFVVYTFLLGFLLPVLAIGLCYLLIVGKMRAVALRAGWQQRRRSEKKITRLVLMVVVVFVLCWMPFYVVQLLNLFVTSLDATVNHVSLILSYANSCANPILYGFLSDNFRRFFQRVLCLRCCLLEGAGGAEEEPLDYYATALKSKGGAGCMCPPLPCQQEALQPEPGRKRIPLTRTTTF

320 non-olfactory GPCRs [4] = biological target: T3, 320 non-olfactory GPCRs (Homo sapiens, UniProt Q8WXD0); settings: receptor RXFP2
T3 construct: expressed in transfected cells; host or cells: HTLA cells
T3 sequence (Q8WXD0 whole entry): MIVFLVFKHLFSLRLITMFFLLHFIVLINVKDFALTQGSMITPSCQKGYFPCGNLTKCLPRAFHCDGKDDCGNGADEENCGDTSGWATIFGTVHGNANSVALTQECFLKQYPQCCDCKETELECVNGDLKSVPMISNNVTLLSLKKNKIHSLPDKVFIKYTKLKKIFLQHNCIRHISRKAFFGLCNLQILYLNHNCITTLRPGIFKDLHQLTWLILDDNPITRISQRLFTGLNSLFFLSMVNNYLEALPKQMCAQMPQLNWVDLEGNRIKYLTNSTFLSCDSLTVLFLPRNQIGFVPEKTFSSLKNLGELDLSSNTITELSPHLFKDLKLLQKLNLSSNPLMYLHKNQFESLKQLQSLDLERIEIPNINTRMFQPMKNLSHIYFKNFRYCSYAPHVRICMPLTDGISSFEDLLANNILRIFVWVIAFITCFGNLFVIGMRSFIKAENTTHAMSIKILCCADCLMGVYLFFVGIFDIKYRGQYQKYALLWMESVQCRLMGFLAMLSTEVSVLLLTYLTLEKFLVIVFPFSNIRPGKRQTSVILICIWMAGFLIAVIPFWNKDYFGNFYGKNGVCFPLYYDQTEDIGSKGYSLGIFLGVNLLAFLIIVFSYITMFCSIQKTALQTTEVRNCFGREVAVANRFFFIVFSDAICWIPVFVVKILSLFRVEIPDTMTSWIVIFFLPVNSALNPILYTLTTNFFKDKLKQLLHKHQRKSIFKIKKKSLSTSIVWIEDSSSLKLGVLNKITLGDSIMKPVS

[5] = Fig_5f, single replicate values
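For GPCRome agonism screen response in this document: fold over basal response of each receptor without drug.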

Row | GPCRome screening signal at UTS2R (320 non-olfactory GPCRs [1]; [5]) | GPCRome screening signal at TA1 (320 non-olfactory GPCRs [2]; [5]) | GPCRome screening signal at SSTR4 (320 non-olfactory GPCRs [3]; [5]) | GPCRome screening signal at RXFP2 (320 non-olfactory GPCRs [4]; [5]) | SMILES | GPCRome agonism screen response (320 non-olfactory GPCRs [1]; replicate values, Fig_4g) | GPCRome agonism screen response (320 non-olfactory GPCRs [2]; replicate values, Fig_4g) | GPCRome agonism screen response (320 non-olfactory GPCRs [3]; replicate values, Fig_4g) | GPCRome agonism screen response (320 non-olfactory GPCRs [4]; replicate values, Fig_4g)
1 | 1.327 and 1.1644 and 2.664 and 0.5292 | 0.8481 and 0.8735 and 0.8675 and 0.7534 | 1.303 and 1.0005 and 1.096 and 1.043 | 1.049 and 1.08 and 1.42 and 0.7752 | CCOc1ccccc1CCC(C)NCC1(O)CCCCC1.Cl (racemic) [Fig_5f] | – | – | – | –
2 | – | – | – | – | CCOc1cccc2cc(C(C)NCC3(O)CCCCC3)oc12 (centres unmarked) [O4LE6] | 1.786 and 2.312 and 1.032 | 0.6778 and 0.9948 and 0.7841 and 0.8752 | 1.584 and 2.327 and 0.4288 and 0.2624 | 0.9912 and 0.8618 and 0.6803 and 0.6522
